Experiments:
[1] = test system: PNH erythrocytes; test: CAP-mediated hemolysis assay with PNH erythrocytes (subject A); type: cell-based, human; details: for inhibition at 0.0234 µM: Compound 1 0.0234 μM; for inhibition at 0.0469 µM: Compound 1 0.0469 μM; for inhibition at 0.0938 µM: Compound 1 0.0938 μM; for inhibition at 0.1875 µM: Compound 1 0.1875 μM; for inhibition at 0.188 µM: Compound 1 0.188 μM; for inhibition at 0.375 µM: Compound 1 0.375 μM; for inhibition at 0.75 µM: Compound 1 0.75 μM; for inhibition at 1.5 µM: Compound 1 1.5 μM
Description: Complement-preserved normal human serum (NHS) from an individual donor of ABO blood group type AB (NHS-AB) was purchase from BioreclamationIVT (Westbury, NY). Gelatin veronal buffer (GVB), pH 7.3, without Ca^++ and Mg^++ (GVB^0) and 100 mM MgCl2 +100 mM EGTA (MgEGTA) were obtained from Complement Technology Inc. (Tyler, TX).
GVB^0·MgEGTA was prepared by mixing GVB^0 and 100 mM MgEGTA in a 9:1 ratio. PNH erythrocytes were used within five days of blood collection; before assay cells were collected by centrifugation at 800×g and 4° C. for 3 minutes and resuspended in fresh cold GVB^0·MgEGTA to a density of 5×10^8 cells/mL.
50 μL of NHS-AB was added to each well. The plates were mixed and incubated at room temperature for 5 minutes. 24 μL of this NHS-AB with compound was then transferred to duplicate wells of V-bottom microtiter plates each containing 76 μL GVB0·MgEGTA. 20 μL PNH erythrocytes was then added to each well and the plates were sealed, mixed, and incubated at 37° C. for 30 minutes with an added shaking for 15 minutes. […] Following incubation, PNH cells were removed by centrifugation at 800×g and 4° C. for 3 minutes, 100 μL supernatant per well was transferred to flat-bottom clear microtiter plates, and A405 of the supernatant was measured in a Molecular Devices Spectramax Plus plate reader.
Combinatorial interactions were analyzed via two methods.
Inhibition was analyzed by the method of Prichard and Shipman (Prichard, M. N. and C. Shipman, Jr. A Three-Dimensional Model to Analyze Drug-Drug Interactions. Antiviral Research 1990, 14:181-205) Three-dimensional surface graphs of each experiment were generated and analyzed using an Excel spreadsheet program adapted from the MacSynergy II spreadsheet (University of Alabama, Birmingham, AL). The X-axis and Y-axis of each surface graph represent the concentrations of the two test compounds, and the Z-axis represents the difference between measured inhibition and a theoretically determined additive inhibition. For an additive relationship, the surface graph resembles a horizontal plane at Z=0, whereas positive surface peaks indicate greater inhibition than expected and therefore synergy, and negative surface peaks indicate less inhibition than expected and therefore antagonism.
Synergy and antagonism volumes were calculated separately as the summed volumes of peaks respectively above and below the Z=0 plane. Volumes were determined using 95% confidence limits to assure significance.
Inhibition was analyzed by the method of Chou and Talalay (Chou, T.-C. and P. Talalay. Analysis of Combined Drug Effects: A New Look at a Very Old Problem. Trends Pharmacol. Sci. 1983, 4:450-454; Chou, T. C. Theoretical basis, experimental design, and computerized simulation of synergism and antagonism in drug combination studies. Pharmacological Reviews 2006, 58:621-681). Analysis using the median-effect equation of Chou and Talalay was performed with CompuSyn software (ComboSyn, Inc, Paramus, NJ). […] Combination index (CI) values were determined at inhibition values of 50%, 75%, and 90%.

[2] = Phase 2 study in PNH subjects: hemoglobin levels; type: in vivo, human; details: Compound 1 100 mg TID + IV eculizumab
Description: The starting dose of compound 1 is based upon group assignment. The Group 1 dose is 100mg three times daily (TID). The Group 2 dose is 150 mg TID. The Group 3 dose is 200 mg TID. The Group 4 dose will receive the optimal dose determined from Groups 1-3.
All doses are taken approximately 15-30 minutes after completion of a meal or snack.
This will be followed by a long-term extension phase.
2 subjects in the first dose level of 100 mg TID have been completed and data collected through 4 weeks. Data collected include lactate dehydrogenase (LDH) levels, hemoglobin levels, reticulocytes, PNH red blood cells (Type III) percentage, C3 Fragment Deposition percentage, and bilirubin levels and their changes from baseline.
Free hemoglobin is a pharmacodynamic marker that is measured from blood drawn on Day 1, Week 1, Week 2, and Week 4 (FIGS. 14A & 14B and Table 16). Low levels of hemoglobin is a sign of hemolytic anemia.

[3] = Homo sapiens, Erythrocyte, Experiment 2, Eculizumab 0-400 μg/mL
[4] = Homo sapiens, Erythrocyte, Experiment 2, Compstatin 0-300 μM
[5] = Homo sapiens, Erythrocyte, Experiment #1, Compstatin 0-300 μM
[6] = Homo sapiens, Erythrocyte, Experiment #1, Eculizumab 0-400 μg/mL

Compound `CC(=O)c1nn(CC(=O)N2C[C@H](F)C[C@H]2C(=O)Nc2cccc(Br)n2)c2ccc(-c3cnc(C)nc3)cc12` [Compound 1, (2S,4R)-1-(2-(3-acetyl-5-(2-methylpyrimidin-5-yl)-1H-indazol-1-yl)acetyl)-N-(6-bromopyridin-2-yl)-4-fluoropyrrolidine-2-carboxamide] has an inhibition at 0.0234 µM [1, 3] of 0%, an inhibition at 0.0469 µM [1, 3] of 0% and an inhibition at 0.0938 µM [1, 4] of 0%. The inhibition at 0.0938 µM [1, 3] was 0%, the inhibition at 0.1875 µM [1, 4] was 6% and the inhibition at 0.188 µM [1, 3] was 7%. The inhibition at 0.375 µM [1, 4] was 27%, the inhibition at 0.375 µM [1, 3] was 27% and the inhibition at 0.75 µM [1, 4] was 65%. It also gave an inhibition at 0.75 µM [1, 3] of 42%, an inhibition at 1.5 µM [1, 4] of 90% and an inhibition at 1.5 µM [1, 3] of 77%. For the same compound, the inhibition at 3 µM ([1]; Homo sapiens, Erythrocyte, Experiment 2, Compound 1 3 μM, Compstatin 0-300 μM) was 97%, the inhibition at 6 µM ([1]; Homo sapiens, Erythrocyte, Experiment 2, Compound 1 6 μM, Compstatin 0-300 μM) was 97% and the inhibition at 0.0234 µM [1, 5] was 0%. For the same compound, the inhibition at 0.0234 µM [1, 6] was 4%, the inhibition at 0.0469 µM [1, 5] was 0% and the inhibition at 0.0469 µM [1, 6] was 2%. The inhibition at 0.0938 µM [1, 5] was 0%, the inhibition at 0.0938 µM [1, 6] was 6% and the inhibition at 0.1875 µM [1, 5] was 11%. It also gave an inhibition at 0.188 µM [1, 6] of 14%, an inhibition at 0.375 µM [1, 5] of 19% and an inhibition at 0.375 µM [1, 6] of 24%. For the same compound, the inhibition at 0.75 µM [1, 5] was 51%, the inhibition at 0.75 µM [1, 6] was 55% and the inhibition at 1.5 µM [1, 5] was 80%. The inhibition at 1.5 µM [1, 6] was 86%, the IC50 ([1]; Homo sapiens, Erythrocyte, AP activity in vitro) was 14 nM and the “inhibition at the high end of the test concentration ranges” value ([1]; single agent, PNH erythrocytes) was “complete inhibition”. For the same compound, the “HEMOGLOBIN Observed” value ([2]; subject 003-001, DAY 1 (baseline)) was 5.0 g/dL, the “HEMOGLOBIN CFB (change from baseline)” value ([2]; subject 003-001, DAY 1) was 0.0 g/dL and the “HEMOGLOBIN CFB (change from baseline)” value ([2]; subject 003-001, WEEK 1) was 1.1 g/dL. The “HEMOGLOBIN Observed” value ([2]; subject 003-001, WEEK 1) was 6.1 g/dL, the “HEMOGLOBIN CFB (change from baseline)” value ([2]; subject 003-001, WEEK 2) was 2.0 g/dL and the “HEMOGLOBIN Observed” value ([2]; subject 003-001, WEEK 2) was 7.0 g/dL. For the same compound, the “HEMOGLOBIN CFB (change from baseline)” value ([2]; subject 003-001, WEEK 4) was 2.6 g/dL, the “HEMOGLOBIN Observed” value ([2]; subject 003-001, WEEK 4) was 7.6 g/dL and the “HEMOGLOBIN Observed” value ([2]; subject 003-002, DAY 1 (baseline)) was 9.8 g/dL. The “HEMOGLOBIN CFB (change from baseline)” value ([2]; subject 003-002, DAY 1) was 0.0 g/dL, the “HEMOGLOBIN CFB (change from baseline)” value ([2]; subject 003-002, WEEK 1) was 1.4 g/dL and the “HEMOGLOBIN Observed” value ([2]; subject 003-002, WEEK 1) was 11.2 g/dL. For the same compound, the “HEMOGLOBIN CFB (change from baseline)” value ([2]; subject 003-002, WEEK 2) was 1.8 g/dL, the “HEMOGLOBIN Observed” value ([2]; subject 003-002, WEEK 2) was 11.6 g/dL and the “HEMOGLOBIN CFB (change from baseline)” value ([2]; subject 003-002, WEEK 4) was 2.9 g/dL. For the same compound, the “HEMOGLOBIN Observed” value ([2]; subject 003-002, WEEK 4) was 12.7 g/dL.
